Here are results for 15 compounds from patent US20250059139A1, “COMPOUNDS FOR TREATMENT OF CANCER” (THE JOHNS HOPKINS UNIVERSITY, priority 2021, published 2025).

Each structure is given as a SMILES string.

Data set [1] deals with T1, Human Aryl Hydrocarbon Receptor (AHR) (Homo sapiens, UniProt P35869).
T1 construct: purchased Indigo Biosciences IB06001
T1 sequence (P35869 11-848): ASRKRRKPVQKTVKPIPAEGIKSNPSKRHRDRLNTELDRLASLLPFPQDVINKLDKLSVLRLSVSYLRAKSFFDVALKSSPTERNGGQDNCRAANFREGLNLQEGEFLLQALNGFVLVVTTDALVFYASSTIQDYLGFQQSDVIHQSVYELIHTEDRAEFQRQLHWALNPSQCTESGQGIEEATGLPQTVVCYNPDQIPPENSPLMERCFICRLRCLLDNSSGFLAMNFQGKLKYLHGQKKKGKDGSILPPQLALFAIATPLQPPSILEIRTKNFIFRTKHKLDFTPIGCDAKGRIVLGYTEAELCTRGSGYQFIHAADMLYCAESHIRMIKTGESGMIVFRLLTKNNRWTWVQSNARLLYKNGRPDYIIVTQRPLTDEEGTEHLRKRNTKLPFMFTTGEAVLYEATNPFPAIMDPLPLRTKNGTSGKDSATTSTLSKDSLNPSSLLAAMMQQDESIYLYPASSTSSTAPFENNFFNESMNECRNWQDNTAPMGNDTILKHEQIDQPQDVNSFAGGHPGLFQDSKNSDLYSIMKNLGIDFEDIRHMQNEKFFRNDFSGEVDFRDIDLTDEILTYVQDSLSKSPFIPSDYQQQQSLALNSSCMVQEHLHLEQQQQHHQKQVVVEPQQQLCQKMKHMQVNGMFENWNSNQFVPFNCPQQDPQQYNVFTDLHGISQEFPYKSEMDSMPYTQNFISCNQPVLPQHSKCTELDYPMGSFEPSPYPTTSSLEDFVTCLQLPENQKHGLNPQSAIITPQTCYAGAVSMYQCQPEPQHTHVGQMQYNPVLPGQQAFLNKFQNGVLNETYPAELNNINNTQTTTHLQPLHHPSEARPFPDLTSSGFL
Briefly: Human AHR reporter assay (cell-based  luciferase reporter gene assay). The following applies: n = 4 independent assays/analog; read-out: AHR Agonist Response [EC50] (nM +/−SD).
Description: AHR Agonist Assay. Human Aryl Hydrocarbon Receptor (AHR) Reporter Assay System [Indigo Biosciences (State College, Pa) Cat #IB06001] was used as per the manufacturer's protocol.
Thus, a series of quinoline-3-carboxamide analogs were synthesized focusing upon adduct changes at the aniline-N. These analogs were synthesized as described in Example 1, and were initially screened for their AHR agonist activity using the in vitro human cell-based ARE-driven luciferase reporter gene assay (Table 3).

Data set [2] concerns CWR22-RH human prostate cancer PDXs. In words: In vivo growth of CWR22-RH xenografts in castrate NSG male mice. As to conditions: for CWR22-RH Tumor Growth (% inhibition +/− SD): castrate mice treated orally over a 3 week period, 10 mg/kg/d, n = 5/group; for growth inhibitor (GI) activity on CWR22-RH xenografts (SAR summary): in vivo. From the text: Prostate Cancer Models. The source, history, and characteristics of the human prostate cancer cell lines and PDXs used, as well as cell culture conditions for their in vitro maintenance and the in vivo protocol for xenograft growth in triple immune-deficient NSG (i.e. NOD.Cg-PrkdcScidIl2rgtmlWji/Szj), adult (>8 week old) male mice obtained from the Sidney Kimmel Comprehensive Cancer Center (SKCCC) Animal Core Facility are described previously (Isaacs 2013; Brennen et al. JCI Insight. 2021, 6(8):e146827; Zhu et al. Oncogene 2020, 39(45): 6935-6949). Similar information concerning the TRAMP-C2 and B6CaP mouse prostate cancers originating in a C57BL/6J male mice are described previously (Foster et al. Cancer Res. 1997, 57: 3325-3330; Simons et al. Oncotarget. 2019, 10(64):6845-6854). In vitro growth curves were determined as described (Isaacs 2013). In vivo growth response to oral daily TasQ (10 mg/kg/d) of TRAMP-C2 mouse prostate cancers was evaluated in C57BL/6J syngeneic wild type vs. NOX-2 vs. iNOS null male mice obtained from Jackson Laboratory (Bar Harbor, ME). Growth response to oral daily TasQ (10 mg/kg/d) of TRAMP-C2 and B6CaP mouse prostate cancers was also evaluated in S100A9 null C57BL′6J male mice obtained from Dmitry Gabrilovich (Wistar Institute). All lines were mycoplasma negative using the MycoSensor PCR Assay kit (Agilent Technologies) and genetically authenticated within the last 6 months using short tandem repeat profiling conducted by the Johns Hopkins Genetic Resource Core Facility. In vitro growth curves were determined as described (Isaacs 2013). Growth response to daily oral TasQ vs. ESATA-20 (both at 10 mg/kg/d) of Myc-CaP-CR mouse prostate cancer was evaluated in syngeneic FVB/NJ castrate male mice from Jackson Laboratory. Animal studies were conducted according to animal protocols approved by Johns Hopkins Animal Care and Use Committee. Tumor volume measurements were as described previously (id.). In vivo experiments were repeated multiple independent times for each model used with 3-5 mice per treatment grouping.
Oral Drug treatment. TasQ at the indicated dose was initially dissolved with equal molar 1 N sodium hydroxide. This solution was diluted with sterile water and the mixture stirred for 1 hr. The pH was then adjusted with 1 N HCl to 8.9 and 200 μL given daily via oral gavage.
Due to these combined effects, maximal growth inhibition of CWR22-RH, a castration-resistant prostate cancer patient-derived xenograft (PDX), is obtained as maintenance therapy with oral daily dosing of ≥5 mg/kg/d (FIG. 1). […] Previous studies documented that in vitro treatment of human prostate cancer cells (LNCaP) with 1-10 μM TasQ rapidly (i.e., ≤1 day) induces the transcription of a series of AHR target genes (e.g., Cyp1a1, Cyp1b1, AHRR, TPARP, GDF15) (Olsson 2010). […]

The target of another data set is T2, fl-HDAC4 (wild-type) (Homo sapiens, UniProt P56524).
T2 construct: Full-length (fl) [A.A. 1-1082] recombinant human histone deacetylase 4 (rhHDAC4) protein; FLAG (N); GST (given as 'with or without'); made in house; host or cells: HEK293-T
Briefly: SPR binding analysis TasQ / fl-HDAC4. As to conditions: compound at >30 μM in solution, Zn2+ present. Here is the method:
Surface Plasmon Resonance (SPR) Binding Analysis. SPR analysis was performed on the Biacore 3000™ system using CM5 sensor chips, certified buffers (HBS-P—10 mM HEPES, 0.15 M NaCl, pH 7.4, containing 0.005% v/v Surfactant P; HBS-EP-HBS-P with 3 mM EDTA) and reagents for immobilization and surface regeneration from Biacore, GE Healthcare, Uppsala Sweden. Evaluation of sensorgrams was performed using the BIA-evaluation Software version 4.1 and GraphPad Prism 4. Buffer of protein reagents were changed to HBS-P on Zeba spin desalting columns (Thermo Scientific) prior to being used in SPR analysis (Isaacs 2013).
A. Binding of wild-type and mutant forms of HDAC4 to immobilized TasQ. TasQ (ABR-215050; mol wt 406.4) was dissolved as a 40 mM solution in water with 1.5 equivalents of NaOH. TasQ with an amino-linker [i.e. —(CH2)2O(CH2)2—NH2](ABR-225180) in amide nitrogen position was used for amine coupling on to a Biacore CM5 sensor chip. A 1 mg/mL solution of ABR-225180 in HBS-P buffer was prepared and immobilized on a CM5 chip by injection at a flow rate of 5 or 10 μL/min until a stable response level was reached. Interaction of various HDAC4 forms with immobilized TasQ was studied by injection over this surface in HBS-P buffer containing 10 or 20 μM ZnCl2. Bound HDAC4 was removed by a pulse of 3 mM EDTA in HBS-P or 0.5 to 6.25 mM NaOH in water. In a second series of experiments, the ability of TasQ in solution to displace this binding was studied by pre-incubation of HDAC4 with TasQ as competitor.
B. Binding of TasQ to immobilized HDAC4 and NCoR1. Different variants of HDAC4 (full-length wild-type and mutant forms and the truncated protein) and full-length NCoR1 were immobilized on a CM5 chip using random amine coupling. Briefly, proteins were dissolved in 10 mM sodium acetate buffer at pH 5.0 or 5.5 and immobilized to the aimed level using the standard protocol from GE Healthcare. Serially diluted TasQ in HBS-P buffer with 10 or 20 μM Zn was injected (for 2 or 3 min at a flow rate of 30 μl/min) either directly or after a 1st injection of 1 mM DTT to reduce cysteines in the zinc conformation site in HDAC4. Regeneration was made with a short pulse of HBS-EP.
To evaluate the conformational requirements for TasQ's binding to HDAC4, surface plasmon resonance (SPR) analysis was utilized. To maximize conformational flexibility, TasQ is immobilized onto the surface of a Biacore CM5 sensor chip via an amino-linker [i.e. —(CH2)2—O—(CH2)2—NH2] in its amide nitrogen position.
By comparison, Linomide even at >30 μM in solution binds only 10-15% of the immobilized fl-HDAC4 protein despite the presence of Zn^+2 (FIG. 14). […] The fact that the KD for binding of soluble TasQ to immobilized fl-HDAC4 is higher than the KD for binding of soluble fl-HDAC4 with immobilized TasQ is predictable. This is because the conformational dynamics of fl-HDAC4 protein immobilized on the chip are more restrictive due to the multiple random amine coupling than the conformational dynamics of TasQ immobilized via a single amino-linker.
To address this possibility, a competitive binding assay was developed based upon the ability of TasQ in solution to compete with immobilized TasQ on the SPR-chip for binding to fl-HDAC4.

The next data set concerns mCRPC patients. As to conditions: human, in vivo; cited from earlier work.

T2 sequence (P56524 whole entry): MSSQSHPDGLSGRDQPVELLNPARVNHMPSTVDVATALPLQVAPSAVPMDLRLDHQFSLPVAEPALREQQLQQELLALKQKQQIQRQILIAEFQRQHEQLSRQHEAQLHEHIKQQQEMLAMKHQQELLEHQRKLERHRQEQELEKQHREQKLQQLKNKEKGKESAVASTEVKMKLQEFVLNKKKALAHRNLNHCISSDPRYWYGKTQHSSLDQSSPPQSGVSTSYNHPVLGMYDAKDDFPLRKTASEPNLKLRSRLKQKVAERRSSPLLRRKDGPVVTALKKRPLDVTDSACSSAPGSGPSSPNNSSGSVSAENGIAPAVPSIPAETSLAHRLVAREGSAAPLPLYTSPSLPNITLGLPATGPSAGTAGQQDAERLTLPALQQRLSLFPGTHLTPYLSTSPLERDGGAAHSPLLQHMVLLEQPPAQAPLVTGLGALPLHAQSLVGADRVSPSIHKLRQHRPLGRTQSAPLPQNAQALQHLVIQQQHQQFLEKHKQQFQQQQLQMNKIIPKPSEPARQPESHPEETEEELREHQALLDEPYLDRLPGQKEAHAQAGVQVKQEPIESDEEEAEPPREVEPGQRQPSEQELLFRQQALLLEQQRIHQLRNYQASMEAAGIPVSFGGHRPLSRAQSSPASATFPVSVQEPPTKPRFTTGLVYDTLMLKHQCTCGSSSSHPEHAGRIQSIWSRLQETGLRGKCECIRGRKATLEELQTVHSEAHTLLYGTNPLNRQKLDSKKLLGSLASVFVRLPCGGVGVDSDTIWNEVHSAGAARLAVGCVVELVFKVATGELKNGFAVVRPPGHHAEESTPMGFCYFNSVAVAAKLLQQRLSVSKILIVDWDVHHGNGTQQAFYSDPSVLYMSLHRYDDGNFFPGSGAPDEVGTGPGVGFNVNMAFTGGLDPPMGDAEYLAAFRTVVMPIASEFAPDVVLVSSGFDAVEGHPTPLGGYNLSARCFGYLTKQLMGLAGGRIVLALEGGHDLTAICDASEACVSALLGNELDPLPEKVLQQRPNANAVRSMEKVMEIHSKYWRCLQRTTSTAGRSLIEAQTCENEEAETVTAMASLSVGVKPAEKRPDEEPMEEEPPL

In the case of `C[C@]12CC[C@H](O)CC1=CC[C@@H]1[C@@H]2CC[C@]2(C)C(c3cccnc3)=CC[C@@H]12` [Abiraterone], the EC50 in data set [1] is above 50000 nM. In data set [2], the “CWR22-RH Tumor Growth (% inhibition +/− SD)” value was below 10%.

Turning to `COC(=O)c1c(O)c2c(OC)cccc2n(C)c1=O` [ESATA-2], the EC50 in data set [1] was above 100000 nM. Also, the “growth inhibitor (GI) activity on CWR22-RH xenografts (SAR summary)” value (shortened to “growth inhibitor (GI) activity”) in data set [2] is recorded as “no GI activity”.

As to `COc1cccc2c1c(O)c(C(=O)Nc1ccc(C(F)(F)F)cc1)c(=O)n2C` [ESATA-4], the EC50 in data set [1] stood at 0.5 nM. Besides, in data set [2], the “CWR22-RH Tumor Growth (% inhibition +/− SD)” value is 86 +/− 9% and the “growth inhibitor (GI) activity” value is recorded as “high GI activity”.

For the compound `COc1cccc2c1CC(C(=O)N(C)c1ccc(C(F)(F)F)cc1)C(=O)N2C` (stereo not drawn) [ESATA-5], the EC50 in data set [1] worked out at 300 nM.

As to `CCCCCCCN(C(=O)c1c(O)c2c(OC)cccc2n(C)c1=O)c1ccc(C(F)(F)F)cc1` [ESATA-11], the EC50 in data set [1] is 50 nM.

Regarding `COc1cccc2c1c(O)c(C(=O)N(CCOCc1ccccc1)c1ccc(C(F)(F)F)cc1)c(=O)n2C` [ESATA-14], the EC50 in data set [1] turned out to be 1100 nM. Also, in data set [2], the “CWR22-RH Tumor Growth (% inhibition +/− SD)” value is given as below 10% and the “growth inhibitor (GI) activity” value was “no GI activity”.

For the compound `COc1cccc2c1c(O)c(C(=O)N(Cc1ccccc1)c1ccc(C(F)(F)F)cc1)c(=O)n2C` [ESATA-18], the EC50 in data set [1] turned out to be 10700 nM. Moreover, the “CWR22-RH Tumor Growth (% inhibition +/− SD)” value in data set [2] is given as 50 +/− 18%.

`COc1cccc2c1c(O)c(C(=O)N(c1ccc(C(F)(F)F)cc1)C1CCC(C(F)(F)F)CC1)c(=O)n2C` (stereo not drawn) [ESATA-22]: in data set [1], the EC50 was 12000 nM. In data set [2], the “CWR22-RH Tumor Growth (% inhibition +/− SD)” value is on record as below 10% and the “growth inhibitor (GI) activity” value is “no GI activity”.

With `COc1cccc2c1c(O)c(C(=O)N/N=C/c1ccc(C(F)(F)F)cc1)c(=O)n2C` [ESATA-24], in data set [1], the EC50 amounted to 800 nM.

In the case of `CCOc1c(C(=O)N(c2ccc(C(F)(F)F)cc2)C2CCCCC2)c(=O)n(C)c2cccc(OC)c12` [ESATA-25], the EC50 in data set [1] worked out at 10500 nM. For the same compound, in data set [2], the “CWR22-RH Tumor Growth (% inhibition +/− SD)” value is reported as below 10% and the “growth inhibitor (GI) activity” value is on record as “no GI activity”.

With `COc1cccc2c1c(OCCNC(=O)OC(C)(C)C)c(C(=O)N(c1ccc(C(F)(F)F)cc1)C1CCCCC1)c(=O)n2C` [ESATA-26], the EC50 in data set [1] was above 50000 nM. Also, in data set [2], the “CWR22-RH Tumor Growth (% inhibition +/− SD)” value was below 10% and the “growth inhibitor (GI) activity” value was “no GI activity”.

Take `COc1cccc2c1c(O)c(C(=O)N(c1ccccc1)C(C)C)c(=O)n2C` [ESATA-27]: the EC50 in data set [1] was 850 nM. Further, the “CWR22-RH Tumor Growth (% inhibition +/− SD)” value in data set [2] is listed as below 10%.

Regarding `COc1cccc2c1c(O)c(C(=O)N(c1ccccc1)C1CCCCC1)c(=O)n2C` [ESATA-28], the EC50 in data set [1] stood at 1300 nM. Also, the “CWR22-RH Tumor Growth (% inhibition +/− SD)” value in data set [2] is below 10%.

In the case of `COc1cccc2c1c(O)c(C(=O)N(c1ccc(C(F)(F)F)cc1)C(C)C)c(=O)n2C` [ESATA-30], the EC50 in data set [1] is 1400 nM. Further, in data set [2], the “CWR22-RH Tumor Growth (% inhibition +/− SD)” value was below 10% and the “growth inhibitor (GI) activity” value was “no GI activity”.

In the case of `CN(C(=O)c1c(O)c2ccccc2n(C)c1=O)c1ccccc1` [Linomide, roquinimex], the “fraction of the immobilized fl-HDAC4 protein bound” value at fl-HDAC4 (wild-type) is 10-15%. Besides, the “adverse events in Phase III clinical trials” value with mCRPC patients is “several cases of pericarditis and neuropathy”.
